According to patent US8003390B2, “Responses to singlet oxygen” (Wisconsin Alumni Research Foundation, priority 2005, dated 2011):
Like-named read-outs stand apart in the source and are kept apart here.

Experiments:
[1] = system: R. sphaeroides Δσ^E mutant; assay: Growth and viability of aerobically grown cells treated with methylene blue in the presence of light; type: cell-based, Rhodobacter sphaeroides; settings: methylene blue + light (1O2), FIG. 3
Method: (§1) To test the effects of ^1O2, photosynthetic cultures were exposed to aerobic growth conditions (69% N2, 30% O2 and 1% CO2) in the presence or in the absence of light (10 W/m^2). Where indicated, light was passed through a 1283 filter (Kopp Glass; Pittsburgh, Pa.) that impedes >99% of light at wavelengths <770 nm, but transmits >45% of light at 830 nm and >80% of light at 900 nm. When using methylene blue (Sigma-Aldrich; St. Louis, Mo.) to generate ^1O2, a final concentration of 1 μM was added to aerobic cultures in the presence or in the absence of incandescent light (10 W/m^2). To test the effects of other ROS, 0.5 mM H2O2, 1 mM diamide or 1 mM paraquat (Sigma-Aldrich) was added to aerobic cultures.
All experiments were initiated when cultures reached ˜2×10^8 cfu/ml to minimize light or O2 limitation to photosynthetic and aerobic cells, respectively. To measure cell viability, samples were removed, diluted and plated in media supplemented with 25 μg/ml kanamycin to select for the rpoE P1::lacZ reporter plasmid. The whole cell abundance of carotenoids was measured as described in Cohen-Bazire G, et al., “Kinetic studies of pigment synthesis by non-sulfur purple bacteria,” J. Cell Physiol. 49:25-68 (1957). […]

[2] = system: σ^E-dependent rpoE P1::lacZ reporter (σ^E activity); assay: Differential rate of β-galactosidase synthesis from the σ^E-dependent rpoE P1::lacZ reporter fusion; type: cell-based, Rhodobacter sphaeroides; settings: for Rate (differential rate of β-galactosidase synthesis from the σ^E-dependent rpoE::lacZ fusion): WT cells, Aero (30% O2)
Method: Bacterial strains and plasmids: R. sphaeroides 2.4.1 (wild-type, WT), R. sphaeroides with a mutant ChrR (ΔChrR) (chrR-1::drf; see Newman et al., supra.) or R. sphaeroides with both a mutant σ^E (Δσ^E) and ΔChrR (TF18; rpoEchrR-1::drf, see Schilke B & Donohue T, “ChrR positively regulates transcription of the Rhodobacter sphaeroides cytochrome c2 gene,” J. Bacteriol. 177:1929-1937 (1995), incorporated herein by reference as if set forth in its entirety) were grown at 30° C. in Sistrom's succinate-based minimal medium A. Media used for growth of strains containing low-copy lacZ reporter plasmids was supplemented with 25 μg/ml kanamycin.
Growth conditions: For aerobic respiratory growth, 500 ml of media was bubbled with a mixture of 69% N2, 30% O2 and 1% CO2 in the dark. Conversely, for photosynthetic growth, 500 ml of media was bubbled with a mixture of 95% N2 and 5% CO2 in front of an incandescent light source (10 W/m^2 as measured with a Yellow-Springs-Kettering model 6.5A radiometer through a Corning […] filter).
as §1
Determining promoter activity: Promoter activity was determined by measuring β-galactosidase activity from a low copy rpoE P1::lacZ reporter plasmid or a trxA::lacZ reporter plasmid. The promoter for the thioredoxin gene (trxA, −214 to +27 relative to the known transcription initiation site) was fused to lacZ and mobilized into R. sphaeroides.
β-galactosidase activity (units/ml of culture) was calculated as follows: (A420×1000)/(Cell volume in assay (ml)×Time of assay (min)). Culture density was typically monitored by measuring A600 in a BioSpec 1601 spectrophotometer (Schimatzu; Columbia, Md.). The density of cultures treated with methylene blue was monitored at 500 nm because methylene blue absorbs light between 609-668 nm. The differential rate of β-galactosidase synthesis was determined by calculating the slope from plots of enzyme activity (units/ml of culture) against optical density. All experiments were repeated a minimum of three times with differential rates of β-galactosidase synthesis typically deviating less than two-fold between experiments.

[3] = system: σ^E-dependent rpoE P1::lacZ reporter (σ^E activity); settings: cited from earlier work
[4] = system: trxA::lacZ reporter (trx promoter); type: cell-based, Rhodobacter sphaeroides
Method: To test the effects of ^1O2, photosynthetic cultures were exposed to aerobic growth conditions (69% N2, 30% O2 and 1% CO2) in the presence or in the absence of light (10 W/m^2). Where indicated, light was passed through a 1283 filter (Kopp Glass; Pittsburgh, Pa.) that impedes >99% of light at wavelengths <770 nm, but transmits >45% of light at 830 nm and >80% of light at 900 nm. When using methylene blue (Sigma-Aldrich; St. Louis, Mo.) to generate ^1O2, a final concentration of 1 μM was added to aerobic cultures in the presence or in the absence of incandescent light (10 W/m^2). […]
Determining promoter activity: Promoter activity was determined by measuring β-galactosidase activity from a low copy rpoE P1::lacZ reporter plasmid or a trxA::lacZ reporter plasmid. […]
β-galactosidase activity (units/ml of culture) was calculated as follows: (A420×1000)/(Cell volume in assay (ml)×Time of assay (min)). Culture density was typically monitored by measuring A600 in a BioSpec 1601 spectrophotometer (Schimatzu; Columbia, Md.). The density of cultures treated with methylene blue was monitored at 500 nm because methylene blue absorbs light between 609-668 nm. The differential rate of β-galactosidase synthesis was determined by calculating the slope from plots of enzyme activity (units/ml of culture) against optical density. […]

[5] = WT cells grown aerobically, 0.5 mM H2O2, 1 mM diamide or 1 mM paraquat, untreated = 11

CN(C)c1ccc2nc3ccc(=[N+](C)C)cc-3sc2c1 [methylene blue]
Effect on Δσ^E mutant when carotenoids are low (OD500nm, cfu/ml) [1]: bacteriocidal | Increase of differential rate of β-galactosidase synthesis from rpoE P1::lacZ compared to aerobic cells grown without methylene blue ([2]; WT aerobic cells, 1 μM methylene blue, light and O2): ~20 fold | Increase of rate of β-galactosidase synthesis from rpoE P1::lacZ ([2]; WT aerobic cultures, methylene blue in the dark): two-fold | Rate (differential rate of β-galactosidase synthesis from the σ^E-dependent rpoE::lacZ fusion) ([2]; 1 μM methylene blue + light (generates 1O2)): 151 | Rate (differential rate of β-galactosidase synthesis from the σ^E-dependent rpoE::lacZ fusion) ([2]; 1 μM methylene blue, dark (no 1O2)): 8

CN(C)C(=O)/N=N/C(=O)N(C)C [Diamide, diamide]
σ^E activity upon exposure to the compound (previous work) [3]: does not increase | rpoE P1::lacZ fusion (differential rate of β-galactosidase synthesis) [2, 5]: 3

OO [H2O2, hydrogen peroxide]
trxA::lacZ fusion (differential rate of β-galactosidase synthesis) [4]: 220 | Change of differential rate of β-galactosidase synthesis from the σ^E-dependent reporter fusion compared to untreated cells [2]: no more than 1.2 fold | rpoE P1::lacZ fusion (differential rate of β-galactosidase synthesis) [2]: 13

C[n+]1ccc(-c2cc[n+](C)cc2)cc1 [Paraquat, paraquat]
trxA::lacZ fusion (differential rate of β-galactosidase synthesis) ([4]; WT cells grown aerobically, 0.5 mM H2O2 or 1 mM paraquat, untreated = 185): 450 | rpoE P1::lacZ fusion (differential rate of β-galactosidase synthesis) [2, 5]: 6 | Change of differential rate of β-galactosidase synthesis from the σ^E-dependent reporter fusion compared to untreated cells ([2]; aerobic WT cells, 0.5 mM H2O2 or 1 mM paraquat): decreased
